For the series, the system named is Cryptosporidium parvum. Description: In vivo model of Tzipori (1998), modified: orally infected baby mice treated for 8 days. The note with it: aurintricarboxylic acid 50 and 100 mmol/kg/day orally in 2 equal portions at 12-hr intervals, suckling C57B1/6 mice infected with 100 000 oocysts. The arrangement: species or system C57B1/6 baby mice. From the text: In vivo model designed by Tzipori (1998) was used in following modification: Three-day-old, SPF C57B1/6 baby mice (Velaz, Czech Republic) were randomly assigned to groups of 8-9 mice. The baby mice were caged with their mother in sterile microisolators equipped with filter tops under standard conditions. 4-day-old mice were orally infected with 100 000 oocysts and the treatment was initiated at the same time; the daily dose of aurintricarboxylic acid 50 and […] was divided into 2 equal portions and orally administered in 12-hr intervals. A control group received phosphate buffer saline, and paromomycin (100 mg/kg/day) was used as positive control. ATA was prepared fresh before each use by dissolving the drug in aqueous solution of sodium hydroxide or potassium hydroxide at a molar ratio of 1:3 (ATA:NaOH), or in dimethylsulfoxide. […] Intensity of infection was expressed as the number of oocysts in homogenized intestinal tract in the 9th day after infection. The experiment was repeated between 2006 and 2007 and always gave very similar results.
The inihibition aurintricarboxylic acid on experimental Cryptosporidium parvum-infection in suckling C57B16 mice is graphed in FIG. 1.

One compound from patent US8053475B2, “Preparation of the formaurindikarboxyl acid base and its derivations and use” (Vyzkumny Ustav Zivocisne Vyroby, V.V.I., priority 2007, dated 2011) can be followed below.

Structures are written as SMILES.

Take `O=C(O)C1=CC(=C(c2ccc(O)c(C(=O)O)c2)c2ccc(O)c(C(=O)O)c2)C=CC1=O` [aurintricarboxylic acid]: the “tolerability of the treatment (visible signs of toxicity)” value is given as “tolerated without any visible signs of toxicity”.
